The text below walks through data of patent US20250171438A1 (Agios Pharmaceuticals, Inc., priority 2022, published 2025).

The structures appear in SMILES notation.

The target of the experiment is T1, human PAH with the R408W mutation (Homo sapiens, UniProt P00439, R408W).
T1 construct: expressed in transfected cells
T1 sequence (P00439 1-452 R408W): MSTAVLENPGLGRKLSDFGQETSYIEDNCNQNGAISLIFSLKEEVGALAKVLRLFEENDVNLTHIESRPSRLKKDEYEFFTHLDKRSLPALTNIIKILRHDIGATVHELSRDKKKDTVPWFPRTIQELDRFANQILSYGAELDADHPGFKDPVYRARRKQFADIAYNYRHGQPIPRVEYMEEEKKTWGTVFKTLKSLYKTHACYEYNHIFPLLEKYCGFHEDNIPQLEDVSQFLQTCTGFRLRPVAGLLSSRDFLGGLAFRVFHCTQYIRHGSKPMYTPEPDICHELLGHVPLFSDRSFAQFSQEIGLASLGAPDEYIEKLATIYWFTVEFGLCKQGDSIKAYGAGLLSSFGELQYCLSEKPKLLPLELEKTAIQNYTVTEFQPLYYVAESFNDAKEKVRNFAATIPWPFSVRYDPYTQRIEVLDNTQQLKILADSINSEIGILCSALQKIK
Put plainly: Cell Based Phenylalanine Flux Assay. Conditions: A375 cells expressing human R408W PAH; 24 hrs compound incubation; 13C-Tyrosine by LC-MS; average where tested multiple times; read-out: AC50.

Take `Cc1cnc(CCC(=O)N2CCc3[nH]cnc3[C@@H]2c2nc3ccccc3s2)s1` [Example 1032, (R)-1-(4-(benzo[d]thiazol-2-yl)-6,7-dihydro-1H-imidazo[4,5-c]pyridin-5(4H)-yl)-3-(5-methylthiazol-2-yl)propan-1-one]: the half-maximal activity concentration (AC50) (as a rule, the concentration giving half of the maximal activity seen) was above 5000 nM.
As for `O=C(Cc1nc(C(F)(F)F)cs1)N1CCc2[nH]cnc2[C@H]1c1nc2ccccc2s1` [Example 1033], the figure is 500 to 1000 nM; as for `O=C(Cc1nc(C(F)(F)F)cs1)N1CCc2[nH]cnc2[C@@H]1c1nc2ccccc2s1` [Example 1034, (R)-1-(4-(benzo[d]thiazol-2-yl)-6,7-dihydro-1H-imidazo[4,5-c]pyridin-5(4H)-yl)-2-(4-(trifluoromethyl)thiazol-2-yl)ethenone], above 5000 nM; as for `O=C(CCc1nccs1)N1CCc2[nH]cnc2[C@H]1c1nc2cccc(F)c2s1` [Example 1035, (S)-1-(4-(7-fluorobenzo[d]thiazol-2-yl)-6,7-dihydro-1H-imidazo[4,5-c]pyridin-5(4H)-yl)-3-(thiazol-2-yl)propan-1-one], 500 to 1000 nM.
The same measure for `O=C(CCc1nccs1)N1CCc2[nH]cnc2[C@@H]1c1nc2cccc(F)c2s1` [Example 1036, (R)-1-(4-(7-fluorobenzo[d]thiazol-2-yl)-6,7-dihydro-1H-imidazo[4,5-c]pyridin-5(4H)-yl)-3-(thiazol-2-yl)propan-1-one]: 1000 to 5000 nM; for `O=C(Cc1nccs1)N1CCc2[nH]cnc2[C@H]1c1nc2ccccc2s1` [Example 1037]: 500 to 1000 nM; for `O=C(Cc1nccs1)N1CCc2[nH]cnc2[C@@H]1c1nc2ccccc2s1` [Example 1038, (R)-1-(4-(benzo[d]thiazol-2-yl)-6,7-dihydro-1H-imidazo[4,5-c]pyridin-5(4H)-yl)-2-(thiazol-2-yl)ethenone]: above 5000 nM.
Consider `O=C(c1cnn2cc(F)ccc12)N1CCc2[nH]cnc2[C@H]1c1nc2ccccc2s1` [Example 1039], for which the AC50 lay in the range of 500 to 1000 nM.
For the compound `O=C(c1cnn2cc(F)ccc12)N1CCc2[nH]cnc2[C@@H]1c1nc2ccccc2s1` [Example 1040, (R)-(4-(benzo[d]thiazol-2-yl)-6,7-dihydro-1H-imidazo[4,5-c]pyridin-5(4H)-yl)(6-fluoropyrazolo[1,5-a]pyridin-3-yl)methanone], the AC50 is above 5000 nM.
Take `Cc1nnc(C(=O)N2CCc3[nH]cnc3[C@H]2c2nc3ccccc3s2)s1` [Example 1041]: the AC50 lay within 1000 to 5000 nM.
The same measure for `Cc1nnc(C(=O)N2CCc3[nH]cnc3[C@@H]2c2nc3ccccc3s2)s1` [Example 1042, (R)-(4-(benzo[d]thiazol-2-yl)-6,7-dihydro-1H-imidazo[4,5-c]pyridin-5(4H)-yl)(5-methyl-1,3,4-thiadiazol-2-yl)methanone]: above 5000 nM; for `Cc1csc(C(=O)N2CCc3[nH]cnc3[C@@H]2c2nc3ccccc3s2)n1` [Example 1043, (R)-(4-(benzo[d]thiazol-2-yl)-6,7-dihydro-1H-imidazo[4,5-c]pyridin-5(4H)-yl)(4-methylthiazol-2-yl)methanone]: above 5000 nM; for `Cc1csc(C(=O)N2CCc3[nH]cnc3[C@H]2c2nc3ccccc3s2)n1` [Example 1044]: 1000 to 5000 nM.
The same measure for `O=C(c1cnn2ccc(Br)cc12)N1CCc2[nH]cnc2[C@H]1c1nc2ccccc2s1` [Example 1047]: below 500 nM; for `O=C(c1cnn2ccc(Br)cc12)N1CCc2[nH]cnc2[C@@H]1c1nc2ccccc2s1` [Example 1048, (R)-(4-(benzo[d]thiazol-2-yl)-6,7-dihydro-1H-imidazo[4,5-c]pyridin-5(4H)-yl)(5-bromopyrazolo[1,5-a]pyridin-3-yl)methanone]: 1000 to 5000 nM; for `O=C(c1n[nH]c2ccccc12)N1CCc2[nH]cnc2[C@H]1c1nc2ccccc2s1` [Example 1049]: 500 to 1000 nM.
The same measure for `O=C(c1n[nH]c2ccccc12)N1CCc2[nH]cnc2[C@@H]1c1nc2ccccc2s1` [Example 1050, (R)-(4-(benzo[d]thiazol-2-yl)-6,7-dihydro-1H-imidazo[4,5-c]pyridin-5(4H)-yl)(1H-indazol-3-yl)methanone]: above 5000 nM; for `O=C(c1ccns1)N1CCc2[nH]cnc2[C@H]1c1nc2ccccc2s1` [Example 1051]: 500 to 1000 nM.
For `O=C(c1ccns1)N1CCc2[nH]cnc2[C@@H]1c1nc2ccccc2s1` [Example 1052, (R)-(4-(benzo[d]thiazol-2-yl)-6,7-dihydro-1H-imidazo[4,5-c]pyridin-5(4H)-yl)(isothiazol-5-yl)methanone], the AC50 was above 5000 nM.
The same measure for `O=C(c1ncc(Cl)s1)N1CCc2[nH]cnc2[C@H]1c1nc2ccccc2s1` [Example 1053]: 500 to 1000 nM.
In the case of `O=C(c1ncc(Cl)s1)N1CCc2[nH]cnc2[C@@H]1c1nc2ccccc2s1` [Example 1054, (R)-(4-(benzo[d]thiazol-2-yl)-6,7-dihydro-1H-imidazo[4,5-c]pyridin-5(4H)-yl)(5-chlorothiazol-2-yl)methanone], the AC50 lay within 1000 to 5000 nM.
The same measure for `Cc1cnc(C(=O)N2CCc3[nH]cnc3[C@H]2c2nc3ccccc3s2)s1` [Example 1055]: 500 to 1000 nM; for `Cc1cnc(C(=O)N2CCc3[nH]cnc3[C@@H]2c2nc3ccccc3s2)s1` [Example 1056, (R)-(4-(benzo[d]thiazol-2-yl)-6,7-dihydro-1H-imidazo[4,5-c]pyridin-5(4H)-yl)(5-methylthiazol-2-yl)methanone]: above 5000 nM; for `O=C(c1nc(Cl)cs1)N1CCc2[nH]cnc2[C@H]1c1nc2ccccc2s1` [Example 1057]: 500 to 1000 nM.
The same measure for `O=C(c1nc(Cl)cs1)N1CCc2[nH]cnc2[C@@H]1c1nc2ccccc2s1` [Example 1058, (R)-(4-(benzo[d]thiazol-2-yl)-6,7-dihydro-1H-imidazo[4,5-c]pyridin-5(4H)-yl)(4-chlorothiazol-2-yl)methanone]: 1000 to 5000 nM.
Turning to `O=C(c1cncs1)N1CCc2[nH]cnc2[C@H]1c1nc2ccccc2s1` [Example 1059], the AC50 is below 500 nM.
As for `O=C(c1cncs1)N1CCc2[nH]cnc2[C@@H]1c1nc2ccccc2s1` [Example 1060, (R)-(4-(benzo[d]thiazol-2-yl)-6,7-dihydro-1H-imidazo[4,5-c]pyridin-5(4H)-yl)(thiazol-5-yl)methanone], the figure is above 5000 nM; as for `O=C(c1cnsc1)N1CCc2[nH]cnc2[C@H]1c1nc2ccccc2s1` [Example 1061], 500 to 1000 nM; as for `O=C(c1cnsc1)N1CCc2[nH]cnc2[C@@H]1c1nc2ccccc2s1` [Example 1062, (R)-(4-(benzo[d]thiazol-2-yl)-6,7-dihydro-1H-imidazo[4,5-c]pyridin-5(4H)-yl)(isothiazol-4-yl)methanone], above 5000 nM.
`O=C(c1cnn2cc(Cl)ccc12)N1CCc2[nH]cnc2[C@H]1c1nc2ccccc2s1` [Example 1063]: the AC50 is below 500 nM.
As for `O=C(c1cnn2cc(Cl)ccc12)N1CCc2[nH]cnc2[C@@H]1c1nc2ccccc2s1` [Example 1064, (R)-(4-(benzo[d]thiazol-2-yl)-6,7-dihydro-1H-imidazo[4,5-c]pyridin-5(4H)-yl)(6-chloropyrazolo[1,5-a]pyridin-3-yl)methanone], the figure is above 5000 nM; as for `O=C(c1ccccc1)N1CCc2[nH]cnc2[C@H]1c1nc2ccccc2s1` [Example 1065], below 500 nM.
For the compound `O=C(c1nncs1)N1CCc2[nH]cnc2[C@@H]1c1nc2ccccc2s1` [Example 1067, (R)-(4-(benzo[d]thiazol-2-yl)-6,7-dihydro-1H-imidazo[4,5-c]pyridin-5(4H)-yl)(1,3,4-thiadiazol-2-yl)methanone], the AC50 was above 5000 nM.
The same measure for `O=C(c1nncs1)N1CCc2[nH]cnc2[C@H]1c1nc2ccccc2s1` [Example 1068]: 500 to 1000 nM; for `O=C(c1cnn2c(Br)cccc12)N1CCc2[nH]cnc2[C@H]1c1nc2ccccc2s1` [Example 1069]: 500 to 1000 nM.
As to `O=C(c1cnn2c(Br)cccc12)N1CCc2[nH]cnc2[C@@H]1c1nc2ccccc2s1` [Example 1070, (R)-(4-(benzo[d]thiazol-2-yl)-6,7-dihydro-1H-imidazo[4,5-c]pyridin-5(4H)-yl)(7-bromopyrazolo[1,5-a]pyridin-3-yl)methanone], the AC50 lay within 1000 to 5000 nM.
As for `O=C(CC1CC1)N1CCc2[nH]cnc2[C@H]1c1nc2ccccc2s1` [Example 1071], the figure is below 500 nM; as for `O=C(CC1CC1)N1CCc2[nH]cnc2[C@@H]1c1nc2ccccc2s1` [Example 1072, (R)-1-(4-(benzo[d]thiazol-2-yl)-6,7-dihydro-1H-imidazo[4,5-c]pyridin-5(4H)-yl)-2-cyclopropylethanone], 1000 to 5000 nM; as for `O=C(C1CC1)N1CCc2[nH]cnc2[C@H]1c1nc2ccccc2s1` [Example 1073], 1000 to 5000 nM.
As for `O=C(C1CC1)N1CCc2[nH]cnc2[C@@H]1c1nc2ccccc2s1` [Example 1074, (R)-(4-(benzo[d]thiazol-2-yl)-6,7-dihydro-1H-imidazo[4,5-c]pyridin-5(4H)-yl)(cyclopropyl)methanone], the figure is above 5000 nM.
As for `O=C(CCC1CC1)N1CCc2[nH]cnc2[C@H]1c1nc2cc(F)ccc2s1` [Example 1075, (S)-3-cyclopropyl-1-(4-(5-fluorobenzo[d]thiazol-2-yl)-6,7-dihydro-1H-imidazo[4,5-c]pyridin-5(4H)-yl)propan-1-one], the figure is 500 to 1000 nM.
